# Reference: PubChem BioAssay AID1963448 (Molecular Pharmacology Branch, DTP, NCI, 2024)
# System: 616215-338-R-J1-PDC complex spheroid growth, % test/control
# Assay: Anticancer human tumor 616215-338-R-J1-PDC patient-derived colon adenocarcinoma cell line growth inhibition [Asc]
# Conditions: for IC50: curve of first compound; for viability, T/C: stronger effect = lower value
# Summary of the method: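 Tumor cells were grown as multicellular spheroids with stromal HUVEC and mesenchymal stem cells and treated singly or in combination. Concentrations fell in half-log steps from the clinical Cmax, or from 10 microM where none was known.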
# 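Also: spheroids exposed to agents for seven days before readout.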
# 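For viability, T/C in this document: 100% = DMSO vehicle control viability.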
smiles,measurement,setting,value
C#Cc1c(F)ccc2cc(O)cc(-c3ncc4c(N5CC6CCC(C5)N6)nc(OCC56CCCN5CC(F)C6)nc4c3F)c12 (centres undefined) + CNC(C)C(=O)NC1CN(S(=O)(=O)c2cccc(S(=O)(=O)N3CCC4CCC(C(=O)NC(c5ccccc5)c5ccccc5)N4C(=O)C(NC(=O)C(C)NC)C3)c2)CCC2CCC(C(=O)NC(c3ccccc3)c3ccccc3)N2C1=O,IC50,second compound 0.00316 µM,2.28 µM
same,IC50,second compound 0.01 µM,2.49 µM
same,IC50,second compound 0.0316 µM,3.76 µM
same,IC50,second compound 0.1 µM,2.33 µM
same,IC50,second compound 0.316 µM,2.72 µM
same,IC50,second compound 1 µM,2.1 µM
same,"viability, T/C","second compound 0.00316 µM, first compound 0.0316 µM",94.8%
same,"viability, T/C","second compound 0.00316 µM, first compound 0.1 µM",104%
same,"viability, T/C","second compound 0.00316 µM, first compound 0.316 µM",95.6%
same,"viability, T/C","second compound 0.00316 µM, first compound 1 µM",100%
same,"viability, T/C","second compound 0.00316 µM, first compound 3.16 µM",30.6%
same,"viability, T/C","second compound 0.00316 µM, first compound 10 µM",6.11%
same,"viability, T/C","second compound 0.01 µM, first compound 0.0316 µM",101%
same,"viability, T/C","second compound 0.01 µM, first compound 0.1 µM",99.3%
same,"viability, T/C","second compound 0.01 µM, first compound 0.316 µM",104%
same,"viability, T/C","second compound 0.01 µM, first compound 1 µM",97.6%
same,"viability, T/C","second compound 0.01 µM, first compound 3.16 µM",37.4%
same,"viability, T/C","second compound 0.01 µM, first compound 10 µM",5.11%
same,"viability, T/C","second compound 0.0316 µM, first compound 0.0316 µM",100%
same,"viability, T/C","second compound 0.0316 µM, first compound 0.1 µM",95.7%
same,"viability, T/C","second compound 0.0316 µM, first compound 0.316 µM",99.9%
same,"viability, T/C","second compound 0.0316 µM, first compound 1 µM",104%
same,"viability, T/C","second compound 0.0316 µM, first compound 3.16 µM",57.1%
same,"viability, T/C","second compound 0.0316 µM, first compound 10 µM",9.6%
same,"viability, T/C","second compound 0.1 µM, first compound 0.0316 µM",90.9%
same,"viability, T/C","second compound 0.1 µM, first compound 0.1 µM",102%
same,"viability, T/C","second compound 0.1 µM, first compound 0.316 µM",105%
same,"viability, T/C","second compound 0.1 µM, first compound 1 µM",89.4%
same,"viability, T/C","second compound 0.1 µM, first compound 3.16 µM",35.7%
same,"viability, T/C","second compound 0.1 µM, first compound 10 µM",4.68%
same,"viability, T/C","second compound 0.316 µM, first compound 0.0316 µM",98.7%
same,"viability, T/C","second compound 0.316 µM, first compound 0.1 µM",102%
same,"viability, T/C","second compound 0.316 µM, first compound 0.316 µM",109%
same,"viability, T/C","second compound 0.316 µM, first compound 1 µM",89.9%
same,"viability, T/C","second compound 0.316 µM, first compound 3.16 µM",44.2%
same,"viability, T/C","second compound 0.316 µM, first compound 10 µM",6.83%
same,"viability, T/C","second compound 1 µM, first compound 0.0316 µM",106%
same,"viability, T/C","second compound 1 µM, first compound 0.1 µM",86%
same,"viability, T/C","second compound 1 µM, first compound 0.316 µM",102%
same,"viability, T/C","second compound 1 µM, first compound 1 µM",104%
same,"viability, T/C","second compound 1 µM, first compound 3.16 µM",22.4%
same,"viability, T/C","second compound 1 µM, first compound 10 µM",3.39%
Cc1nc(N2CCC3(CC2)COC(C)C3N)c(CO)nc1Sc1ccnc(N)c1Cl (centres undefined) + CNC(C)C(=O)NC1CN(S(=O)(=O)c2cccc(S(=O)(=O)N3CCC4CCC(C(=O)NC(c5ccccc5)c5ccccc5)N4C(=O)C(NC(=O)C(C)NC)C3)c2)CCC2CCC(C(=O)NC(c3ccccc3)c3ccccc3)N2C1=O,IC50,second compound 0.00316 µM,0.969 µM
same,IC50,second compound 0.01 µM,0.534 µM
same,IC50,second compound 0.0316 µM,1.08 µM
same,IC50,second compound 0.1 µM,0.784 µM
same,IC50,second compound 0.316 µM,0.53 µM
same,IC50,second compound 1 µM,1.77 µM
same,"viability, T/C","second compound 0.00316 µM, first compound 0.00949 µM",96.8%
same,"viability, T/C","second compound 0.00316 µM, first compound 0.03 µM",104%
same,"viability, T/C","second compound 0.00316 µM, first compound 0.0949 µM",89.7%
same,"viability, T/C","second compound 0.00316 µM, first compound 0.3 µM",99.3%
same,"viability, T/C","second compound 0.00316 µM, first compound 0.949 µM",50.8%
same,"viability, T/C","second compound 0.00316 µM, first compound 3 µM",8.66%
same,"viability, T/C","second compound 0.01 µM, first compound 0.00949 µM",87.2%
same,"viability, T/C","second compound 0.01 µM, first compound 0.03 µM",94.1%
same,"viability, T/C","second compound 0.01 µM, first compound 0.0949 µM",99.7%
same,"viability, T/C","second compound 0.01 µM, first compound 0.3 µM",85.3%
same,"viability, T/C","second compound 0.01 µM, first compound 0.949 µM",14.7%
same,"viability, T/C","second compound 0.01 µM, first compound 3 µM",7.72%
same,"viability, T/C","second compound 0.0316 µM, first compound 0.00949 µM",99.4%
same,"viability, T/C","second compound 0.0316 µM, first compound 0.03 µM",68.4%
same,"viability, T/C","second compound 0.0316 µM, first compound 0.0949 µM",104%
same,"viability, T/C","second compound 0.0316 µM, first compound 0.3 µM",98.4%
same,"viability, T/C","second compound 0.0316 µM, first compound 0.949 µM",54.9%
same,"viability, T/C","second compound 0.0316 µM, first compound 3 µM",11.4%
same,"viability, T/C","second compound 0.1 µM, first compound 0.00949 µM",103%
same,"viability, T/C","second compound 0.1 µM, first compound 0.03 µM",85.1%
same,"viability, T/C","second compound 0.1 µM, first compound 0.0949 µM",94%
same,"viability, T/C","second compound 0.1 µM, first compound 0.3 µM",115%
same,"viability, T/C","second compound 0.1 µM, first compound 0.949 µM",40.3%
same,"viability, T/C","second compound 0.1 µM, first compound 3 µM",9.21%
same,"viability, T/C","second compound 0.316 µM, first compound 0.00949 µM",92.2%
same,"viability, T/C","second compound 0.316 µM, first compound 0.03 µM",78.3%
same,"viability, T/C","second compound 0.316 µM, first compound 0.0949 µM",98.2%
same,"viability, T/C","second compound 0.316 µM, first compound 0.3 µM",68.3%
same,"viability, T/C","second compound 0.316 µM, first compound 0.949 µM",29.9%
same,"viability, T/C","second compound 0.316 µM, first compound 3 µM",11.6%
same,"viability, T/C","second compound 1 µM, first compound 0.00949 µM",83.1%
same,"viability, T/C","second compound 1 µM, first compound 0.03 µM",88.3%
same,"viability, T/C","second compound 1 µM, first compound 0.0949 µM",103%
same,"viability, T/C","second compound 1 µM, first compound 0.3 µM",92.5%
same,"viability, T/C","second compound 1 µM, first compound 0.949 µM",101%
same,"viability, T/C","second compound 1 µM, first compound 3 µM",12.8%
